Test results: US7432288B2, “Pyrrole-2,5-dione derivatives as Liver X receptor modulators” (AstraZeneca AB, priority 2003, dated 2008)

Biological target: T1, LXRalpha and/or beta (human LXR ligand binding domain)
T1 construct: fused on or other part: His-tag (6xHis) on the LXR-LBD
Test: Co-activator recruitment assay (time-resolved fluorescence, SRC-1 peptide)
Assay type: biochemical
Conditions: LXR subtype (alpha or beta) not stated for these values; 22-R Hydroxycholesterol at 50 μM as 100% control; read-out: EC50 in coactivator recruitment assays
Text: The Ligand Binding Domain (LBD) of human LXRalpha (amino acid 205-447) and LXRbeta (amino acid 216-461) was produced by recombinant techniques in E coli. A fragment of the human Steroid Receptor Co-Activator-1 (SRC-1) was produced as a synthetic peptide. An anti-6His-antibody coupled with Europium (Eu^3+) was used to recognize the His-tag on the LXR-LBD and Allophycocyanin (APC) coupled to streptavidin was used to recognize the biotinylated SRC-1. Agonist binding to LXRalpha or LXRbeta enhances the affinity of LXR towards SRC-1 and thereby brings Eu^3+ and APC in close proximity. Eu^3+ is excited at 337 nm and emitts light at 620 nm. This emission, when in close proximity, excites APC to emit light at 665 nm.
Dilution plates with compounds in DMSO were further diluted in buffer {20 mM [Tris(hydroxymethyl)aminomethane] pH 7.5, 0.125% CHAPS {3-[(3-Cholamidopropyl)dimethylammonio]-1-propanesulfonate}, 2 mM DTT (Dithiothreitol) and 0.05% BSA (Bovine Serum Albumin)} in order to reduce DMSO concentration, 0.5 μl to 13.5 μl. To this, 6 μl assay mix was added and the plates (384-well V-groove plates) were incubated at room temperature for 60 to 80 min. […] Time-resolved fluorescence readings were done in a Wallac Victor reader at 665 nm followed by reading at 615 nm. […]

SMILES | EC50
COc1ccc(NC2=C(c3ccccc3)C(=O)N(Cc3ccc(N(C)C)cc3)C2=O)cc1 [Example 13, 1-[4-(Dimethylamino)benzyl]-3-[(4-methoxyphenyl)amino]-4-phenyl-1H-pyrrole-2,5-dione] | 150 nM
COc1ccc(NC2=C(c3ccccc3)C(=O)N(Cc3cc(C)on3)C2=O)cc1 [Example 22, 3-[(4-Methoxyphenyl)amino]-1-[(5-methylisoxazol-3-yl)methyl]-4-phenyl-1H-pyrrole-2,5-dione] | 110 nM
